# Tests used:
# corn = experiment: Test B pre/postemergence corn; assay type: in vivo, Zea mays
# In short: (§1)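 Response is a visual 0-to-10 score relative to untreated plants, where 0 means no effect and 10 means complete control, taken twelve to sixteen days after application. Treatments went onto soil at planting and onto foliage of 1- to 4-leaf plants, using a surfactant-containing non-phytotoxic solvent.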
# sugar beet = experiment: Test B pre/postemergence sugar beet; assay type: in vivo, Beta vulgaris
# In short: as §1
# smallflower flatsedge = experiment: Test B flood test smallflower flatsedge; assay type: in vivo, Cyperus difformis
# In short: (§2)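 Flood test on plants grown to the 2-leaf stage; treated plants kept in greenhouse twelve to sixteen days, then visually rated against controls on a 0 (no effect) to 10 (complete control) scale.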
# surinam grass = experiment: Test B pre/postemergence surinam grass; assay type: in vivo, Brachiaria decumbens
# In short: as §1
# pigweed = experiment: Test B pre/postemergence pigweed; assay type: in vivo, Amaranthus retroflexus
# In short: as §1
# bamyardgrass = experiment: Test B flood test barnyardgrass; assay type: in vivo, Echinochloa crus-galli
# In short: as §2
# rape = experiment: Test B pre/postemergence rape; assay type: in vivo, Brassica napus
# In short: as §1
# bedstraw = experiment: Test B pre/postemergence bedstraw; assay type: in vivo, Galium aparine; conditions: Postemergence, Rate 62 g/ha; scale 0 to 10, 0 is no effect, 10 is complete control
# In short: as §1
# giant foxtail = experiment: Test B pre/postemergence giant foxtail; assay type: in vivo, Setaria faberii
# In short: as §1
# soybean = experiment: Test B pre/postemergence soybean; assay type: in vivo, Glycine max
# In short: as §1
# rice = experiment: Test B flood test rice; assay type: in vivo, Oryza sativa
# In short: as §2
# blackgrass = experiment: Test B pre/postemergence blackgrass; assay type: in vivo, Alopecurus myosuroides
# In short: as §1
# velvetleaf = experiment: Test B pre/postemergence velvetleaf; assay type: in vivo, Abutilon theophrasti
# In short: as §1
# morningglory = experiment: Test B pre/postemergence morningglory; assay type: in vivo, Ipomoea hederacea
# In short: as §1
# duck salad = experiment: Test B flood test duck salad; assay type: in vivo, Heteranthera limosa
# In short: as §2
# purple nutsedge = experiment: Test B pre/postemergence purple nutsedge; assay type: in vivo, Cyperus rotundus
# In short: as §1
# [1] = Postemergence, Rate 62 g/ha, scale 0 to 10, 0 is no effect, 10 is complete control
# [2] = Postemergence, Rate 125 g/ha, scale of 0 to 10 where 0 is no effect and 10 is complete control
# [3] = Postemergence, Rate 250 g/ha, scale of 0 to 10, 0 is no effect, 10 is complete control
# [4] = Preemergence, Rate 62 g/ha, scale of 0 to 10 where 0 is no effect and 10 is complete control
# [5] = Preemergence, Rate 125 g/ha, scale of 0 to 10 where 0 is no effect and 10 is complete control
# [6] = Preemergence, Rate 250 g/ha, scale 0 to 10 (0 no effect, 10 complete control)
# [7] = Preemergence, Rate 500 g/ha, scale of 0 to 10 where 0 is no effect and 10 is complete control
# [8] = Rate 500 g/ha, Postemergence, scale 0 to 10, 0 is no effect, 10 is complete control
# [9] = Rate 62 g/ha, flood test species, Pre-emergence, visual evaluation after twelve to sixteen days
# [10] = Rate 125 g/ha, under heading Pre-emergence, flood test species, visual evaluation after twelve to sixteen days
# [11] = Rate 250 g/ha, Pre-emergence (flood test species), scale 0 to 10, 0 is no effect, 10 is complete control
# [12] = Rate 500 g/ha, Pre-emergence section of Table B, 0 to 10 scale (0 no effect, 10 complete control)
smiles,measurement,setting,value
CC[C@@H](C)n1c(=O)on(C(=O)N(c2ccc(F)cc2F)C(C)C)c1=O [Compound 667],"Plant response rating, Corn",corn; [1],4
same,Corn plant response rating,corn; [2],4
same,Corn plant response rating,corn; [3],4
same,Corn plant response rating,corn; [4],0
same,Corn plant response rating,corn; [5],4
same,"Plant response rating, Corn",corn; [6],7
same,"Plant response rating, Corn",corn; [7],10
same,Corn plant response rating,corn; [8],5
same,"Plant response rating, Sugarbeets",sugar beet; [1],0
same,Sugarbeets plant response rating,sugar beet; [2],0
same,Sugarbeets plant response rating,sugar beet; [4],5
same,Sugarbeets plant response rating,sugar beet; [5],7
same,"Plant response rating, Sugarbeets",sugar beet; [6],8
same,"Plant response rating, Sugarbeets",sugar beet; [7],10
same,Sugarbeets plant response rating,sugar beet; [8],3
same,"Plant response rating, S. Flatsedge (0 to 10 scale, 0 is no effect, 10 is complete control)",smallflower flatsedge; [9],0
same,"S. Flatsedge plant response rating (0 to 10 scale, 0 is no effect, 10 is complete control)",smallflower flatsedge; [10],0
same,S. Flatsedge plant response rating,smallflower flatsedge; [11],0
same,S. Flatsedge plant response rating,smallflower flatsedge; [12],0
same,"Plant response rating, B. signalgrass",surinam grass; [1],0
same,"Plant response rating, B. signalgrass",surinam grass; [2],4
same,B. signalgrass plant response rating,surinam grass; [3],6
same,B. signalgrass plant response rating,surinam grass; [4],3
same,B. signalgrass plant response rating,surinam grass; [5],5
same,"Plant response rating, B. signalgrass",surinam grass; [6],8
same,"Plant response rating, B. signalgrass",surinam grass; [7],8
same,B. signalgrass plant response rating,surinam grass; [8],7
same,"Plant response rating, Redroot pigweed",pigweed; [1],2
same,Redroot pigweed plant response rating,pigweed; [2],5
same,Redroot pigweed plant response rating,pigweed; [4],10
same,Redroot pigweed plant response rating,pigweed; [5],10
same,"Plant response rating, Redroot pigweed",pigweed; [6],10
same,"Plant response rating, Redroot pigweed",pigweed; [7],10
same,Redroot pigweed plant response rating,pigweed; [8],7
same,"Plant response rating, Barnyardgrass (0 to 10 scale, 0 is no effect, 10 is complete control)",bamyardgrass; [9],0
same,"Barnyardgrass plant response rating (0 to 10 scale, 0 is no effect, 10 is complete control)",bamyardgrass; [10],0
same,Barnyardgrass plant response rating,bamyardgrass; [11],0
same,Barnyardgrass plant response rating,bamyardgrass; [12],0
same,"Plant response rating, Rape",rape; [1],0
same,Rape plant response rating,rape; [2],4
same,Rape plant response rating,rape; [4],7
same,Rape plant response rating,rape; [5],8
same,"Plant response rating, Rape",rape; [6],10
same,"Plant response rating, Rape",rape; [7],10
same,Rape plant response rating,rape; [8],6
same,"Plant response rating, Bedstraw",bedstraw,0
same,"Plant response rating, Giant foxtail",giant foxtail; [1],5
same,Giant foxtail plant response rating,giant foxtail; [2],9
same,Giant foxtail plant response rating,giant foxtail; [3],9
same,Giant foxtail plant response rating,giant foxtail; [4],10
same,Giant foxtail plant response rating,giant foxtail; [5],10
same,"Plant response rating, Giant foxtail",giant foxtail; [6],10
same,"Plant response rating, Giant foxtail",giant foxtail; [7],10
same,Giant foxtail plant response rating,giant foxtail; [8],9
same,"Plant response rating, Soybean",soybean; [1],2
same,Soybean plant response rating,soybean; [2],3
same,Soybean plant response rating,soybean; [4],0
same,Soybean plant response rating,soybean; [5],3
same,"Plant response rating, Soybean",soybean; [6],6
same,"Plant response rating, Soybean",soybean; [7],7
same,"Plant response rating, Rice (0 to 10 scale, 0 is no effect, 10 is complete control)",rice; [9],0
same,"Rice plant response rating (0 to 10 scale, 0 is no effect, 10 is complete control)",rice; [10],0
same,Rice plant response rating,rice; [11],0
same,Rice plant response rating,rice; [12],0
same,"Plant response rating, Blackgrass",blackgrass; [1],6
same,Blackgrass plant response rating,blackgrass; [2],8
same,Blackgrass plant response rating,blackgrass; [3],8
same,Blackgrass plant response rating,blackgrass; [4],8
same,Blackgrass plant response rating,blackgrass; [5],8
same,"Plant response rating, Blackgrass",blackgrass; [6],8
same,"Plant response rating, Blackgrass",blackgrass; [7],10
same,Blackgrass plant response rating,blackgrass; [8],8
same,"Plant response rating, Velvetleaf",velvetleaf; [1],5
same,Velvetleaf plant response rating,velvetleaf; [2],6
same,Velvetleaf plant response rating,velvetleaf; [4],6
same,Velvetleaf plant response rating,velvetleaf; [5],6
same,"Plant response rating, Velvetleaf",velvetleaf; [6],8
same,"Plant response rating, Velvetleaf",velvetleaf; [7],10
same,Velvetleaf plant response rating,velvetleaf; [8],8
same,"Plant response rating, Morningglory",morningglory; [1],2
same,Morningglory plant response rating,morningglory; [2],2
same,Morningglory plant response rating,morningglory; [3],4
same,Morningglory plant response rating,morningglory; [4],0
same,Morningglory plant response rating,morningglory; [5],1
same,"Plant response rating, Morningglory",morningglory; [6],3
same,"Plant response rating, Morningglory",morningglory; [7],6
same,Morningglory plant response rating,morningglory; [8],6
same,"Plant response rating, Ducksalad (0 to 10 scale, 0 is no effect, 10 is complete control)",duck salad; [9],0
same,"Ducksalad plant response rating (0 to 10 scale, 0 is no effect, 10 is complete control)",duck salad; [10],0
same,Ducksalad plant response rating,duck salad; [11],0
same,Ducksalad plant response rating,duck salad; [12],0
same,"Plant response rating, Nutsedge",purple nutsedge; [1],0
same,Nutsedge plant response rating,purple nutsedge; [2],0
same,Nutsedge plant response rating,purple nutsedge; [4],0
same,Nutsedge plant response rating,purple nutsedge; [5],0
same,"Plant response rating, Nutsedge",purple nutsedge; [6],3
same,"Plant response rating, Nutsedge",purple nutsedge; [7],7
same,Nutsedge plant response rating,purple nutsedge; [8],0

# Reference: US6737383B1, “Herbicidal oxadiazolidines” (priority 1999, dated 2004)
